Laboratory results published in the NIST ThermoML archive (doi:10.1021/je034062r).

Assay: xn = mol fraction of the nth substance listed
Conditions: for mass density: Liquid; for surface tension liquid-gas: Pendant drop shape

CC(C)=O [acetone] + Cc1ccccc1
Conditions	mass density, 283.15 K [kg/m3]	mass density, 288.15 K [kg/m3]	mass density, 293.15 K [kg/m3]	mass density, 298.15 K [kg/m3]	mass density, 303.15 K [kg/m3]	surface tension liquid-gas, 287.81 K [mN/m]	surface tension liquid-gas, 297.82 K [mN/m]	surface tension liquid-gas, 307.86 K [mN/m]
x2 = 0	803.2	798.2	792.6	787	781.2	23.94	22.78	21.59
x2 = 0.1	815.1	809.8	804.2	798.8	793.3	24.56	23.28	22.08
x2 = 0.2002	823.5	818.2	812.5	807.1	801.6	25.24	23.78	22.58
x2 = 0.3002	832.2	826.8	821.4	816.1	810.8	25.89	24.36	23.1
x2 = 0.3997	841.2	836.1	830.7	825.6	820.4	26.46	24.93	23.77
x2 = 0.4973	847.6	842.6	837.3	832.3	827.2	27.1	25.55	24.4
x2 = 0.6011	854.7	849.9	844.6	839.7	834.7	27.68	26	25
x2 = 0.7004	860.8	856	850.9	846.1	841.3	28.24	26.5	25.4
x2 = 0.7998	866.4	861.7	856.6	851.9	847.2	28.48	27.1	26
x2 = 0.8982	871.5	866.9	861.9	857.3	852.6	28.73	27.33	–
